Assay results taken from US12083231B2, “Starch-based double-loaded functional nano particle as well as preparation method and application” (Hefei University of Technology, priority 2021, dated 2024).

Assay: Retention rate of quercetin and anthocyanin during storage for 14 days
Format: physicochemical
Conditions: after being stored for 14 days; nanoparticle with EHT:carboxymethyl dextrin mass ratio 1:1
Text: It can be seen from FIG. 8 that quercetin and anthocyanin alone are easy to degrade in the environment, and only about 20% of quercetin and anthocyanin can be retained after being stored for 14 days. […] The significant increase of retention rate proves that the starch-based double-loaded functional colloid nanoparticle can effectively protect quercetin and anthocyanin from being degraded.

Row | Compound | retention rate of quercetin | retention rate of anthocyanin
1 | O=c1c(O)c(-c2ccc(O)c(O)c2)oc2cc(O)cc(O)c12 [quercetin] | about 20% | –
2 | anthocyanin | – | about 20%
